In patent publication US20200316038A1, “METHODS AND COMPOSITIONS FOR TREATING UREA CYCLE DISORDERS, IN PARTICULAR OTC DEFICIENCY” (CAMP4 THERAPEUTICS CORPORATION, priority 2017, published 2020):
Structures can show the parent of a compound that is named as a salt. Where two headings read alike, the source gives them in different places.

B1: GDF10 (BMP3b): member of the BMP family and the TGF-B superfamily (protein, UniProt P55107 369-478, looked up)
Growth/differentiation factor …: QWDEPRVCSRRYLKVDFADIGWNEWIISPKSFDAYYCAGACEFPMPKIVRPSNHATIQSIVRAVGIIPGIPEPCCVPDKMNSLGVLFLDENRNVVLKVYPNMSVDTCACR

Columns and labels:
OTC = OTC expression modulated by compounds (OTC/Geo Mean of HKs, DMSO = 1); type: cell-based, human; settings: OTC expression
Method: Analysis of the fold changes in expression as measured by qRT-PCR were performed using the technique below. The control was DMSO, and the treatment was the selected compound (CPD). The internal control was GAPDH or B-Actin, and the gene of interest is the target. First, the averages of the 4 conditions were calculated for normalization: DMSO:GAPDH, DMSO:Target, CPD: GAPDH, and CPD:Target. Next, the ΔCT of both control and treatment were calculated to normalize to internal control (GAPDH) using (DMSO:Target)−(DMSO:GAPDH)=ΔCT control and (CPD:Target)−(CPD: GAPDH)=ΔCT experimental. Then, the ΔΔCT was calculated by ΔCT experimental−ΔCT control.

CPS1 = test: RNA-seq, CPS1 expression in compound-treated primary human hepatocytes; type: cell-based
[1] = system: multiple urea cycle-related genes; test: RNA-seq, compounds that modulate multiple urea cycle-related genes; type: cell-based; settings: primary human hepatocytes; for Up-regulated Genes: urea cycle-related genes significantly increased by the compound
ARG1 = test: RNA-seq, ARG1 expression in compound-treated primary human hepatocytes; type: cell-based; settings: RNA-seq, primary human hepatocytes, compounds that significantly increase ARG1 expression
[2] = compound at 10 uM final concentration
[3] = RNA-seq, primary human hepatocytes, compounds that significantly increase NAGS expression

| Molecule | Max Value (OTC/Geo Mean of HKs; DMSO = 1) (OTC; [2]) | further results |
| --- | --- | --- |
| C=CCNC1=C2C[C@@H](C)C[C@H](OC)[C@H](O)[C@@H](C)/C=C(\C)[C@H](OC(N)=O)[C@@H](OC)/C=C\C=C(/C)C(=O)NC(=CC1=O)C2=O [17-AAG (Tanespimycin), Tanespimycin] | 1.69 |  |
| N#CC(c1ccnc(OCc2ccc(CN3CCOCC3)cc2)n1)c1nc2ccccc2s1 (stereo not shown) [AS602801 (Bentamapimod), Bentamapimod] | 2.75 |  |
| Cc1cc(Nc2nc(N[C@@H](C)c3ncc(F)cn3)ncc2Cl)[nH]n1 [AZD1480] | 1.46 |  |
| Cc1ccc(-n2nc(C(C)(C)C)cc2NC(=O)Nc2ccc(OCCN3CCOCC3)c3ccccc23)cc1 [BIRB 796, Doramapimod] | 2.61 |  |
| O=C(NCCCNc1nc(Nc2cccc(NC(=O)N3CCCC3)c2)ncc1I)c1cccs1 [BX795] | 2.57 |  |
| CC1(C)CC[C@]2(C(=O)O)CC[C@]3(C)[C@H](C(=O)C=C4[C@@]5(C)C=C(C#N)C(=O)C(C)(C)[C@@H]5CC[C@]43C)[C@@H]2C1 [Bardoxolone] | 2.76 |  |
| CCS(=O)(=O)N1CC(CC#N)(n2cc(-c3ncnc4[nH]ccc34)cn2)C1 [Baricitinib] | 1.66 |  |
| N#CC(C#N)=NNc1cccc(Cl)c1 [CCCP] | 4.06 |  |
| C=CC(=O)Nc1cccc(Nc2nc(Nc3ccc(N4CCN(C(C)=O)CC4)cc3OC)ncc2C(F)(F)F)c1 [CO-1686 (Rociletinib), Rociletinib] |  | NAGS expression, Fold change (Log 2) vs untreated (NAGS): 1.05 Log 2; Fold change (Log 2) vs untreated (CPS1): 0.89 Log 2 |
| C=C1/C(=C\C=C2/CCC[C@]3(C)[C@@H]([C@H](C)CCCC(C)(C)O)CC[C@@H]23)C[C@@H](O)C[C@@H]1O [Calcitriol] |  | NAGS expression, Fold change (Log 2) vs untreated (NAGS; [3]): 1.2 Log 2 |
| CC1(COc2ccc3c(c2)ncn3-c2ccc3cccc(N4CCC(N)CC4)c3n2)COC1 [Crenolanib] | 2.79 | number of urea cycle genes whose expression was significantly up-regulated [1]: four; Up-regulated Genes [1]: ASS1, ASL, OTC, ARG1 |
| c1cc(-c2cnn3cc(-c4ccc(OCCN5CCCCC5)cc4)cnc23)ccn1 [Dorsomorphin] | 4.78 |  |
| O=C(N[C@H]1CN2CCC1CC2)c1cc2cccc(Cl)c2s1 [EVP-6124 (hydrochloride) (encenicline), encenicline] |  | NAGS expression, Fold change (Log 2) vs untreated (NAGS; [3]): 0.75 Log 2 |
| CS[C@H]1SC[C@H]2C(=O)N(C)[C@@H](C(C)C)C(=O)OC[C@@H](NC(=O)c3cnc4ccccc4n3)C(=O)N[C@@H](C)C(=O)N(C)[C@@H]1C(=O)N(C)[C@@H](C(C)C)C(=O)OC[C@@H](NC(=O)c1cnc3ccccc3n1)C(=O)N[C@@H](C)C(=O)N2C [Echinomycin] |  | number of urea cycle genes whose expression was significantly up-regulated [1]: six |
| CCn1c(=O)c(-c2ccc(-c3cncs3)cc2Cl)cc2cnc(Nc3ccc(N4CCN(C)CC4)cc3)nc21 [FRAX597] |  | number of urea cycle genes whose expression was significantly up-regulated [1]: five |
| COc1cc2c(Oc3ccc(NC(=O)C4(C(=O)Nc5ccc(F)cc5)CC4)cc3F)ccnc2cc1OCCCN1CCOCC1 [Foretinib (GSK1363089), Foretinib] | 4.09 |  |
| O=C(Nc1nc2cccc(-c3ccc(CN4CCS(=O)(=O)CC4)cc3)n2n1)C1CC1 [GLPG0634] | 1.54 |  |
| Cc1cc(Nc2cc(CN3CCOCC3)c3nc(C)c(Cc4ccc(Cl)cc4F)n3n2)n[nH]1 [LY2784544] | 2.78 |  |
| Cc1ccc(F)c(NC(=O)Nc2ccc(-c3cccc4[nH]nc(N)c34)cc2)c1 [Linifanib (ABT-869), Linifanib] | 2.87 |  |
| O=C(NCCCNc1nc(Nc2cccc(CN3CCOCC3)c2)ncc1C1CC1)C1CCC1 [MRT67307] | 1.68 |  |
| N#CCNC(=O)c1ccc(-c2ccnc(Nc3ccc(N4CCOCC4)cc3)n2)cc1 [Momelotinib] | 3.52 | number of urea cycle genes whose expression was significantly up-regulated [1]: three; Up-regulated Genes [1]: CPS1, OTC, ARG1 |
| CN(c1ncccc1CNc1nc(Nc2ccc3c(c2)CC(=O)N3)ncc1C(F)(F)F)S(C)(=O)=O [PF-00562271] | 3.3 |  |
| CC1(C)CC(=O)c2c(C(F)(F)F)nn(-c3ccc(C(N)=O)c(N[C@H]4CC[C@H](OC(=O)CN)CC4)c3)c2C1 [PF-04929113 (SNX-5422)] | 1.73 |  |
| CNC(=O)c1ccc(C)c(-n2c(C)cc(OCc3ccc(F)cc3F)c(Br)c2=O)c1 [PH-797804] | 1.53 |  |

| Molecule | Max Value (OTC/Geo Mean of HKs; DMSO = 1) (OTC; [2]) | further results |
| --- | --- | --- |
| C1=C/COCc2cc(ccc2OCCN2CCCC2)Nc2nccc(n2)-c2cccc(c2)COC/1 [Pacritinib (SB1518), Pacritinib] |  | number of urea cycle genes whose expression was significantly up-regulated [1]: five; Up-regulated Genes [1]: CPS1, ASS1, ASL, OTC, ARG1 |
| Cn1c(=O)c(Oc2ccc(F)cc2F)cc2cnc(NC(CCO)CCO)nc21 [Pamapimod] | 1.73 |  |
| Cc1ccc(Nc2nccc(N(C)c3ccc4c(C)n(C)nc4c3)n2)cc1S(N)(=O)=O [Pazopanib] | 1.48 |  |
| [H]/N=C(/N)N/C(=N/[H])NCCc1ccccc1 [Phenformin] |  | NAGS expression, Fold change (Log 2) vs untreated (NAGS): 1.38 Log 2; ARG1 expression, Fold change (Log 2) vs untreated (ARG1): 1.14 Log 2 |
| CCCC(=O)O[C@@H]1[C@@H](C)[C@@]2(O)[C@@H](C=C(CO)C[C@]3(O)C(=O)C(C)=C[C@@H]23)[C@@H]2C(C)(C)[C@]12OC(=O)CCC [Phorbol 12,13-dibutyrate] |  | NAGS expression, Fold change (Log 2) vs untreated (NAGS; [3]): 0.62 Log 2 |
| NS(=O)(=O)C#Cc1ccccc1 [Pifithrin-u] |  | ARG1 expression, Fold change (Log 2) vs untreated (ARG1): 1.87 Log 2 |
| N[C@@]1(C(=O)O)CS(=O)(=O)[C@H]2[C@H](C(=O)O)[C@H]21 [Pomaglumetad] | 1.49 |  |
| COc1cc(Nc2ncc(F)c(Nc3ccc4c(n3)N(COP(=O)(O)O)C(=O)C(C)(C)O4)n2)cc(OC)c1OC [R788 (fostamatinib disodium hexahydrate), fostamatinib disodium hexahydrate] |  | number of urea cycle genes whose expression was significantly up-regulated [1]: three; Up-regulated Genes [1]: CPS1, ARG1, SLC25A15 |
| Cl.Cn1c(=O)c(Oc2ccc(F)cc2F)cc2cnc(NC3CCOCC3)nc21 [R1487 Hydrochloride] | 1.64 |  |
| CNC(=O)c1cc(Oc2ccc(NC(=O)Nc3ccc(Cl)c(C(F)(F)F)c3)c(F)c2)ccn1 [Regorafenib] | 1.54 | Max Value (OTC/Geo Mean of HKs; DMSO = 1) (OTC; compound at 10 uM final concentration, listed as Regorafenib (BAY 73-4506)): 2.07 |
| C=CCNc1c(O)cc2c(O)c1C[C@@H](C)C[C@H](OC)[C@H](O)[C@@H](C)/C=C(\C)[C@H](OC(N)=O)[C@@H](OC)/C=C\C=C(/C)C(=O)N2 [Retaspimycin Hydrochloride] |  | Max Value (OTC/Geo Mean of HKs; DMSO = 1) (OTC; compound tested at 1 uM): 1.48 |
| COc1cc2c(cc1OC)CN(C(=O)/C=C/c1c(-c3ccccc3)n(C)c3ncccc13)CC2 [SIS3] | 1.46 | NAGS expression, Fold change (Log 2) vs untreated (NAGS): 0.64 Log 2 |
| O=C(NCCCn1ccnc1)c1cc(-c2ccco2)on1 [SKL2001] |  | NAGS expression, Fold change (Log 2) vs untreated (NAGS): 0.95 Log 2 |
| CC(C)[C@H](O)C(=O)N[C@@H](C)C(=O)N[C@@H]1C(=O)N(C)CCc2ccccc21 [Semagacestat] | 1.5 |  |
| Cc1cc(C)c(/C=C2\C(=O)Nc3ccccc32)[nH]1 [Semaxanib] |  | NAGS expression, Fold change (Log 2) vs untreated (NAGS; [3]): 2 Log 2 |
| CCN(CC)CCNC(=O)c1c(C)[nH]c(/C=C2\C(=O)Nc3ccc(F)cc32)c1C [Sunitinib] | 2.62 |  |
| CCS(=O)(=O)c1cccc(-c2cc(C(=O)NC3CCN(C)CC3)c(C)c3[nH]c4ncc(C)cc4c23)c1 [TAK-901] | 2.9 |  |
| CN1CCN(CCCN2c3ccccc3Sc3ccc(C(F)(F)F)cc32)CC1 [TFP, Trifluoperazine] |  | NAGS expression, Fold change (Log 2) vs untreated (NAGS; [3]): 0.58 Log 2 |
| COc1cc2nccc(Oc3ccc(NC(=O)Nc4cc(C)on4)c(Cl)c3)c2cc1OC [Tivozanib] | 1.57 |  |
| C[C@@H]1CCN(C(=O)CC#N)C[C@@H]1N(C)c1ncnc2[nH]ccc12 [Tofacitinib citrate] | 1.6 |  |
| CC(C)c1cc(CNc2nc(Nc3cc(C4CC4)[nH]n3)cc(N3CCN(C)CC3)n2)on1 [XL228] | 2.92 |  |
| COCCn1c2c([n+](Cc3cnccn3)c1C)C(=O)c1ccccc1C2=O [YM155 (Sepantronium Bromide), Sepantronium Bromide] | 3.16 |  |
| B1 |  | Fold change (Log 2) vs untreated (CPS1): 1.66 Log 2; ARG1 expression, Fold change (Log 2) vs untreated (ARG1): 0.97 Log 2 |
